Results from patent publication US20080108685A1, “Novel Use for Alpha Sympathomimetics Having a 2-Imidazoline Structure” (priority 2004, published 2008).
Read-outs that look alike come from different tables or passages of the source.

Legend:
HRV 14 [1] = assay: high-throughput cytopathic effect inhibitory assay (CPE), HeLa cells infected with HRV 14; assay type: cell-based, human rhinovirus; details: HRV 14, HeLa cells, second series of experiments
MDCK cells = details: dog
HRV 14 [2] = assay: plaque reduction assay, HeLa cells infected with HRV 14; assay type: cell-based, human rhinovirus; details: for Plaque reduction rel. inhibition: HRV 14, HeLa cells, M.O.I. 0.0004; for Rel. total inhibition: HRV 14, plaque reduction and residual infectiousness combined
HRV 14 [3] = assay: residual infectiousness (TCID50/ml) by virus titration, HeLa cells infected with HRV 14; assay type: cell-based, human rhinovirus; details: HRV 14, HeLa cells
influenza A virus = assay type: cell-based; details: MDCK cells
HRV 2 = assay type: cell-based, human rhinovirus; details: HRV 2, HeLa cells, 72 hours after infection
[4] = dilution 1:2 of 0.003125% (W/V)
[5] = dilution 1:4 of 0.003125% (W/V)
[6] = dilution 1:8 of 0.003125% (W/V)
[7] = dilution 1:16 of 0.003125% (W/V)
[8] = dilution 1:32 of 0.003125% (W/V)

SMILES: Cc1cc(C(C)(C)C)c(O)c(C)c1CC1=NCCN1 [oxymetazoline]
- CPE inhibition (HRV 14 [1]; [4]): 50.5%
- CPE inhibition (HRV 14 [1]; [5]): 53.6%
- CPE inhibition (HRV 14 [1]; [6]): 37.5%
- CPE inhibition (HRV 14 [1]; [7]): 5.9%
- active-ingredient concentration at which no effects which reduce the metabolism of the cells arise (non-cytotoxic concentration) (MDCK cells): 0.005 % (W/V)
- Plaque reduction rel. inhibition (HRV 14 [2]; [4]): 44.26%
- Plaque reduction rel. inhibition (HRV 14 [2]; [5]): 32.98%
- Plaque reduction rel. inhibition (HRV 14 [2]; [6]): 25.74%
- Plaque reduction rel. inhibition (HRV 14 [2]; [7]): 17.66%
- Plaque reduction rel. inhibition (HRV 14 [2]; [8]): 14.26%
- Rel. total inhibition (HRV 14 [2]; [4]): 38.79
- Rel. total inhibition (HRV 14 [2]; [5]): 26.91
- Rel. total inhibition (HRV 14 [2]; [6]): 22.25
- Rel. total inhibition (HRV 14 [2]; [7]): 18.20
- Rel. total inhibition (HRV 14 [2]; [8]): 13.38
- Residual infectiousness rel. inhibition (HRV 14 [3]; [4]): 33.33%
- Residual infectiousness rel. inhibition (HRV 14 [3]; [5]): 20.83%
- Residual infectiousness rel. inhibition (HRV 14 [3]; [6]): 18.75%
- Residual infectiousness rel. inhibition (HRV 14 [3]; [7]): 18.75%
- Residual infectiousness rel. inhibition (HRV 14 [3]; [8]): 12.50%
- CPE inhibition (influenza A virus; dilution 1:2 of 0.005% (W/V)): 52.8%
- CPE inhibition (influenza A virus; dilution 1:4 of 0.005% (W/V)): 35.5%
- CPE inhibition (influenza A virus; dilution 1:8 of 0.005% (W/V)): 23.1%
- CPE inhibition (influenza A virus; dilution 1:16 of 0.005% (W/V)): 9.1%
- CPE inhibition (HRV 2; [4]): 40.5%
- CPE inhibition (HRV 2; [5]): 23.2%
